Patent US12268747B2, “Polypeptides having anti-senescent effects and uses thereof” (OneSkin, Inc., priority 2019, dated 2025)
Peptide text beside a SMILES is read from it.

Columns and labels:
[1] = system: Primary fibroblasts from Progeria patients; experiment: Polypeptide library screen: SA-B-galactosidase senescence and cell number in Progeria fibroblasts; format: cell-based, human; conditions: 10 μM, 48 hours
Protocol: Primary fibroblasts isolated from Progeria patients can constitute a genetic model of early aging and cellular senescence in humans. Primary fibroblasts from Progeria patients were cultured in DMEM (Dulbecco's Modified Eagle's Medium) supplemented with 10% v.v. fetal bovine serum (FBS), and 1% v.v. of penicillin/streptomycin solution (1,000 U·mL−1). Cells were kept in a 5% CO2, 37° C. and 95% humidity atmosphere. After expansion, these cells were seeded in 96-well plates (1,000 cells per well) and, 6 hours after plating, were incubated with individual polypeptides from a proprietary library at 50 μM for 48 hours. Negative control comprised untreated cells, which received vehicle only; positive control group comprised cells incubated with 10 μM ABT-263, a senolytic compound for the same period. […] Three independent experiments including three technical replicates were performed.

[2] = system: human primary fibroblasts isolated from 3 healthy donors, etoposide-stressed; experiment: Etoposide-induced senescence in fibroblasts; format: cell-based; conditions: etoposide 20 μM, 24 hours
Protocol: Cellular senescence may be caused by several different stimuli. In order to assess whether Peptide 14 was effective against UVB-induced and chemically-induced senescence, human primary fibroblasts isolated from 3 healthy donors were used. These cells were cultured in DMEM (Dulbecco's Modified Eagle's Medium) supplemented with 10% v.v. fetal bovine serum (FBS), and 1% v.v. of penicillin/streptomycin solution (1,000 U·mL−1). Cells were kept in a 5% CO2, 37° C. and 95% humidity atmosphere. After expansion, these cells were seeded in 96-well plates (4,000 cells per well) and, 6 hours after plating, were submitted to either etoposide (20 μM) treatment for 24 hours, or exposed twice to 0.05 J/cm^2 of UVB radiation. […] After incubation, relative cellular senescence (assessed by the activity of senescence associated β-galactosidase staining relative to untreated control) was analyzed and plotted in column graphs. ATRX foci were also assessed following ATRX immunofluorescence staining. Graphs were built using the average ATRX foci detected per nuclei. […] Data was analyzed using with either t-test or ANOVA followed by a Bonferroni post-hoc test. Statistical significance was determined as p-values equal or lower than 0.05 (FIG. 6).

[3] = system: Primary fibroblasts from Progeria patients; experiment: Senescence (SA-β-galactosidase, ATRX foci) in Progeria fibroblasts, short sequences; format: cell-based, human; conditions: 500 nM, 5 μM, 50 μM
Protocol: Skin cells from Progeria patients were used as a model of aging because of the high levels of cellular senescence. Primary fibroblasts from Progeria patients were cultured in DMEM (Dulbecco's Modified Eagle's Medium) supplemented with 10% v.v. fetal bovine serum (FBS), and 1% v.v. of penicillin/streptomycin solution (1,000 U·mL−1). Cells cultured at 5% CO2, 37° C. and 95% humidity atmosphere. After expansion, the cells were seeded in 96-well plates (4,000 cells per well) and, 6 hours after plating, were incubated with 500 nM, 5 μM or 50 μM of polypeptide sequence LKGIL (SEQ ID NO: 6) or WLKGI (SEQ ID NO: 7). Negative control comprised untreated cells, which received vehicle only. After incubation, relative cellular senescence, which was assessed by the activity of senescence associated β-galactosidase staining relative to untreated control and by the quantification of ATRX foci/nuclei, was analyzed. Three independent experiments (biological replicates) including three technical replicates were performed. Data was analyzed using ANOVA and a Bonferroni post-hoc test. Statistical significance was determined as p values equal or lower than 0.05, where *p<0.05 and ** p<0.01.

MeWo cells [4] = experiment: Melanin content of MeWo cells, 7 days treatment; format: cell-based, human; conditions: 7 days after 14 day IBMX pre-treatment; Peptide 14 3.12 μM or retinoic acid 2 μM with 25 μM IBMX; positive control 25 μM IBMX
Protocol: (§1) To test whether Peptide 14 promotes depigmentation of melanocytes, MeWo cells were cultured in DMEM supplemented with 10% v/v FBS and 1% v/v of penicillin/streptomycin solution (1,000 U·mL^−1) at 5% CO2, 37° C. and 95% humidity. For two weeks prior to treatment with one of the experimental conditions (pre-treatment), the MeWo cells were cultured with isobutyl methylxanthine (IBMX) to stimulate melanin synthesis. After the MeWo cells were seeded in 6-well plates at 1,000,000 cells per well for 6 hours, the cells were incubated with one of the experimental conditions for 7 days and analyzed for intracellular and supernatant melanin content.
The experimental conditions included a positive control group, a negative control group, a Peptide 14 (IBMX) 7d group, and a retinoic acid (IBMX) 7d group. […]
(§2) After treatment, the melanin content in the cell pellet and the cell culture supernatant was assessed by the absorbance of the samples at 492 nm. […] Data are presented as relative melanin content, absorbance of the samples at a specified wavelength (492 nm) normalized to the absorbance of the negative control samples also as the same wavelength. […] The data were analyzed using ANOVA and Bonferroni post-hoc test when a statistical significance was detected. […]

MeWo cells [5] = experiment: Melanin content of MeWo cells, 14 days or interrupted on 7th day; format: cell-based, human
Protocol: as §1, with “The skin frequently may experience rebound hyperpigmentation, where pigmentation is reestablished in the skin after the discontinuation of the lightening treatment(s). To” for “To”, “whether the depigmentation effect of” for “whether”, “14 remained after the Peptide 14 treatment was discontinued,” for “14 promotes depigmentation of melanocytes,”, “for 14” for “for 7”
The experimental conditions included a positive control group, a negative control group, a Peptide 14 (IBMX) 14 days group, a retinoic acid (IBMX) 14 days group, a Peptide 14 (IBMX) interrupted on 7th day group, and a retinoic acid (IBMX) interrupted on 7th day group. The negative control group comprised MeWo cells which were stimulated with 25 μM IBMX for 2 weeks in the pre-treatment period and then were untreated for 14 days, receiving the vehicle only, after being plated for the experiment. The positive control group comprised MeWo cells that were incubated with 25 μM IBMX during the entire experiment, for 2 weeks in the pre-treatment period and for 14 days in the treatment period. Some of the groups were treated with both IBMX 25 μM for 7 or 14 days, as well as 3.12 μM Peptide 14, or both IBMX 25 μM (for 7 or 14 days), as well as retinoic acid 2 μM. The Peptide 14 (IBMX) 14 day group comprised MeWo cells that were incubated with 25 μM IBMX 2 weeks in the pre-treatment period and then treated for 14 days with 25 μM IBMX and 3.12 μM Peptide 14. The retinoic acid (IBMX) 14 day group comprised MeWo cells that were incubated with 25 μM IBMX 2 weeks in the pre-treatment period and then treated for 14 days with 25 μM IBMX and 2 μM retinoic acid. […]
as §2, with “to the […] absorbance of” for “to the absorbance of”

[6] = system: Primary fibroblasts isolated from 3 healthy chronologically aged patients; experiment: SA-B-galactosidase senescence in fibroblasts of aged donors, concentration series; format: cell-based, human; conditions: 1.56-50 μM (Peptide 16: 1.56-25 μM), 48 hours; in at least one of the tested concentrations
Protocol: Primary fibroblasts isolated from 3 healthy chronologically aged patients were used. Cells were cultured in DMEM (Dulbecco's Modified Eagle's Medium) supplemented with 10% v.v. fetal bovine serum (FBS), and 1% v.v. of penicillin/streptomycin solution (1,000 U·mL−1). Cells were kept in a 5% CO2, 37° C. and 95% humidity atmosphere. After expansion, these cells were seeded in 96-well plates (4,000 cells per well) and, 6 hours after plating the cells were treated with one of 4 senotherapeutic polypeptides (Peptide 14, Peptide 13, Peptide 15, and Peptide 16) and incubated for 48 hours. Each polypeptide was tested at 6 different concentrations: 50 μM, 25 μM, 12.5 μM, 6.25 μM, 3.12 μM, and 1.56 μM, except for Peptide 16, which was tested at 5 different concentrations: 25 μM, 12.5 μM, 6.25 μM, 3.12 μM, and 1.56 μM. A negative control comprised untreated cells, which received vehicle only. After incubation, relative cellular senescence (assessed by the activity of senescence associated B-galactosidase staining relative to untreated control) was analyzed (FIG. 2, panels A-D), in which the Y axis indicates the relative senescence levels normalized to untreated control. Each column corresponds to a different concentration of a polypeptide. Three independent experiments (biological replicates) including three technical replicates were performed. Data was analyzed using Analysis of Variance (ANOVA) and a Bonferroni post-hoc tests. Statistical significance was determined as p values equal or lower than 0.05.

[7] = 7 day treatment, then 7 days 25 μM IBMX only

CC1(C)CCC(c2ccc(Cl)cc2)=C(CN2CCN(c3ccc(C(=O)NS(=O)(=O)c4ccc(N[C@H](CCN5CCOCC5)CSc5ccccc5)c(S(=O)(=O)C(F)(F)F)c4)cc3)CC2)C1 [ABT-263]
cellular toxicity (cell number) [1]: cellular toxicity
cellular senescence (SA-B-galactosidase staining) ([1]; positive control): significant reduction

COc1cc([C@@H]2c3cc4c(cc3[C@@H](O[C@@H]3O[C@@H]5CO[C@@H](C)O[C@H]5[C@H](O)[C@H]3O)[C@H]3COC(=O)[C@H]23)OCO4)cc(OC)c1O [Etoposide, etoposide]
ATRX foci nuclear accumulation (average ATRX foci/cell) [2]: significant increase
cellular senescence level [2]: significant increase

CC[C@H](C)[C@H](NC(=O)CNC(=O)[C@H](CCCCN)NC(=O)[C@@H](N)CC(C)C)C(=O)N[C@@H](CC(C)C)C(=O)O [LKGIL] (H-LKGIL-OH; N-terminus and C-terminus assumed)
cellular toxicity (relative cell number) [3]: No cellular toxicity

CC[C@H](C)[C@H](NC(=O)CNC(=O)[C@H](CCCCN)NC(=O)[C@H](CC(C)C)NC(=O)[C@@H](N)Cc1c[nH]c2ccccc12)C(=O)O [WLKGI] (H-WLKGI-OH; N-terminus and C-terminus assumed)
cellular toxicity (relative cell number) [3]: No cellular toxicity

CC1=C(/C=C/C(C)=C/C=C/C(C)=C/C(=O)O)C(C)(C)CCC1 [retinoic acid]
relative melanin content, cell pellet (MeWo cells [4]): about 125 % of the negative control group
relative melanin content, cell culture supernatant (MeWo cells [5]; [7]): about 100%
relative melanin content, cell pellet (MeWo cells [5]; [7]): about 90%
relative melanin content, cell pellet (MeWo cells [5]; 14 day treatment, Peptide 14 3.12 μM or retinoic acid 2 μM with 25 μM IBMX, positive control 25 μM IBMX, normalized to cell number and negative control): about 130%
relative melanin content, cell culture supernatant (MeWo cells [5]; 14 day treatment, positive control 25 μM IBMX): about 50%

KLKGILRGAA [Peptide 15]
relative cellular senescence (SA-B-galactosidase staining) vs untreated control [6]: senotherapeutic effects

WLKGILREAA [Peptide 16]
relative cellular senescence (SA-B-galactosidase staining) vs untreated control [6]: senotherapeutic effects
